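These data come from cells grown in 96-well plates and exposed to compound for 48 hours at five concentrations. At the TGI there is no net growth.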
Experiments:
Assay in all cases: DTP human tumour cell line panel, 48 h
ACHN renal = system: ACHN renal
SK-MEL-28 melanoma = system: SK-MEL-28 melanoma
SF-539 CNS = system: SF-539 CNS
SR leukemia = system: SR leukemia
HCC-2998 colon = system: HCC-2998 colon
HT29 colon = system: HT29 colon
K-562 leukemia = system: K-562 leukemia
NCI-H522 lung = system: NCI-H522 lung
EKVX NSCLC = system: EKVX NSCLC
MDA-MB-435 = system: MDA-MB-435
MOLT-4 leukemia = system: MOLT-4 leukemia
LOX IMVI melanoma = system: LOX IMVI melanoma
MDA-MB-231 breast = system: MDA-MB-231 breast
HS 578T breast = system: HS 578T breast
MDA-N = system: MDA-N
SK-MEL-2 melanoma = system: SK-MEL-2 melanoma
HCT-116 colon = system: HCT-116 colon
HOP-62 NSCLC = system: HOP-62 NSCLC
CAKI-1 renal = system: CAKI-1 renal
HL-60(TB) leukemia = system: HL-60(TB) leukemia
A498 renal = system: A498 renal
SNB-19 CNS = system: SNB-19 CNS
U251 CNS = system: U251 CNS
PC-3 prostate = system: PC-3 prostate
MALME-3M melanoma = system: MALME-3M melanoma
TK-10 renal = system: TK-10 renal
MCF7 breast = system: MCF7 breast
RXF 393 renal = system: RXF 393 renal
UACC-62 melanoma = system: UACC-62 melanoma
UACC-257 melanoma = system: UACC-257 melanoma
SK-MEL-5 melanoma = system: SK-MEL-5 melanoma
SNB-75 CNS = system: SNB-75 CNS
DU-145 prostate = system: DU-145 prostate
SF-295 CNS = system: SF-295 CNS
786-0 renal = system: 786-0 renal
CCRF-CEM leukemia = system: CCRF-CEM leukemia
SW-620 colon = system: SW-620 colon
SN12C renal = system: SN12C renal
BT-549 breast = system: BT-549 breast
NCI-H460 lung = system: NCI-H460 lung
M14 melanoma = system: M14 melanoma
SK-OV-3 ovarian = system: SK-OV-3 ovarian
NCI-H23 lung = system: NCI-H23 lung
OVCAR-4 ovarian = system: OVCAR-4 ovarian
NCI/ADR-RES ovarian = system: NCI/ADR-RES ovarian
NCI-H226 lung = system: NCI-H226 lung
COLO 205 colon = system: COLO 205 colon
OVCAR-8 ovarian = system: OVCAR-8 ovarian
A549 NSCLC = system: A549 NSCLC
KM12 colon = system: KM12 colon
RPMI-8226 leukemia = system: RPMI-8226 leukemia
T-47D breast = system: T-47D breast
OVCAR-5 ovarian = system: OVCAR-5 ovarian
HCT-15 colon = system: HCT-15 colon
HOP-92 NSCLC = system: HOP-92 NSCLC
OVCAR-3 ovarian = system: OVCAR-3 ovarian
IGROV1 ovarian = system: IGROV1 ovarian
SF-268 CNS = system: SF-268 CNS
UO-31 renal = system: UO-31 renal

COC1CCC(OS(C)(=O)=O)C(C)O1 (stereo not drawn) gave a TGI (ACHN renal) greater than 10 µM, a TGI (SK-MEL-28 melanoma) greater than 10 µM and a TGI (SF-539 CNS) greater than 10 µM. It also gave a TGI (SR leukemia) greater than 10 µM, a TGI (HCC-2998 colon) greater than 10 µM and a TGI (HT29 colon) greater than 10 µM. The TGI (K-562 leukemia) was greater than 10 µM, the TGI (NCI-H522 lung) was greater than 10 µM and the TGI (EKVX NSCLC) was greater than 10 µM. For the same compound, the TGI (MDA-MB-435) was greater than 10 µM, the TGI (MOLT-4 leukemia) was greater than 10 µM and the TGI (LOX IMVI melanoma) was greater than 10 µM. For the same compound, the TGI (MDA-MB-231 breast) was greater than 10 µM, the TGI (HS 578T breast) was greater than 10 µM and the TGI (MDA-N) was greater than 10 µM. The TGI (SK-MEL-2 melanoma) was greater than 10 µM, the TGI (HCT-116 colon) was greater than 10 µM and the TGI (HOP-62 NSCLC) was greater than 10 µM. The TGI (CAKI-1 renal) was greater than 10 µM, the TGI (HL-60(TB) leukemia) was greater than 10 µM and the TGI (A498 renal) was greater than 10 µM. It also gave a TGI (SNB-19 CNS) greater than 10 µM, a TGI (U251 CNS) greater than 10 µM and a TGI (PC-3 prostate) greater than 10 µM. The TGI (MALME-3M melanoma) was greater than 10 µM, the TGI (TK-10 renal) was greater than 10 µM and the TGI (MCF7 breast) was greater than 10 µM. It also gave a TGI (RXF 393 renal) greater than 10 µM, a TGI (UACC-62 melanoma) greater than 10 µM and a TGI (UACC-257 melanoma) greater than 10 µM. The TGI (SK-MEL-5 melanoma) was greater than 10 µM, the TGI (SNB-75 CNS) was greater than 10 µM and the TGI (DU-145 prostate) was greater than 10 µM. For the same compound, the TGI (SF-295 CNS) was greater than 10 µM, the TGI (786-0 renal) was greater than 10 µM and the TGI (CCRF-CEM leukemia) was greater than 10 µM. It also gave a TGI (SW-620 colon) greater than 10 µM, a TGI (SN12C renal) greater than 10 µM and a TGI (BT-549 breast) greater than 10 µM. For the same compound, the TGI (NCI-H460 lung) was greater than 10 µM, the TGI (M14 melanoma) was greater than 10 µM and the TGI (SK-OV-3 ovarian) was greater than 10 µM. For the same compound, the TGI (NCI-H23 lung) was greater than 10 µM, the TGI (OVCAR-4 ovarian) was greater than 10 µM and the TGI (NCI/ADR-RES ovarian) was greater than 10 µM. The TGI (NCI-H226 lung) was greater than 10 µM, the TGI (COLO 205 colon) was greater than 10 µM and the TGI (OVCAR-8 ovarian) was greater than 10 µM. It also gave a TGI (A549 NSCLC) greater than 10 µM, a TGI (KM12 colon) greater than 10 µM and a TGI (RPMI-8226 leukemia) greater than 10 µM. It also gave a TGI (T-47D breast) greater than 10 µM, a TGI (OVCAR-5 ovarian) greater than 10 µM and a TGI (HCT-15 colon) greater than 10 µM. It also gave a TGI (HOP-92 NSCLC) greater than 10 µM, a TGI (OVCAR-3 ovarian) greater than 10 µM and a TGI (IGROV1 ovarian) greater than 10 µM. It also gave a TGI (SF-268 CNS) greater than 10 µM.
CC1=NN(C(=O)CC(=O)Nc2cccc(C)c2)C(=O)C1N=Nc1ccc(C(=O)O)cc1 (stereo not drawn) gave a TGI (ACHN renal) greater than 100 µM, a TGI (SK-MEL-28 melanoma) greater than 100 µM and a TGI (SF-539 CNS) greater than 100 µM. The TGI (SR leukemia) was greater than 100 µM, the TGI (HCC-2998 colon) was greater than 100 µM and the TGI (HT29 colon) was greater than 100 µM. For the same compound, the TGI (K-562 leukemia) was greater than 100 µM, the TGI (NCI-H522 lung) was greater than 100 µM and the TGI (EKVX NSCLC) was greater than 100 µM. The TGI (MDA-MB-435) was greater than 100 µM, the TGI (LOX IMVI melanoma) was greater than 100 µM and the TGI (MDA-MB-231 breast) was greater than 100 µM. It also gave a TGI (HS 578T breast) greater than 100 µM, a TGI (MDA-N) greater than 100 µM and a TGI (SK-MEL-2 melanoma) greater than 100 µM. The TGI (HCT-116 colon) was greater than 100 µM, the TGI (HOP-62 NSCLC) was greater than 100 µM and the TGI (CAKI-1 renal) was greater than 100 µM. For the same compound, the TGI (UO-31 renal) was greater than 100 µM, the TGI (HL-60(TB) leukemia) was greater than 100 µM and the TGI (A498 renal) was greater than 100 µM. It also gave a TGI (SNB-19 CNS) greater than 100 µM, a TGI (U251 CNS) greater than 100 µM and a TGI (PC-3 prostate) greater than 100 µM. For the same compound, the TGI (MALME-3M melanoma) was greater than 100 µM, the TGI (TK-10 renal) was greater than 100 µM and the TGI (MCF7 breast) was greater than 100 µM. It also gave a TGI (RXF 393 renal) greater than 100 µM, a TGI (UACC-62 melanoma) greater than 100 µM and a TGI (UACC-257 melanoma) greater than 100 µM. For the same compound, the TGI (SK-MEL-5 melanoma) was greater than 100 µM, the TGI (SNB-75 CNS) was greater than 100 µM and the TGI (DU-145 prostate) was greater than 100 µM. For the same compound, the TGI (SF-295 CNS) was greater than 100 µM, the TGI (786-0 renal) was greater than 100 µM and the TGI (CCRF-CEM leukemia) was greater than 100 µM. It also gave a TGI (SW-620 colon) greater than 100 µM, a TGI (SN12C renal) greater than 100 µM and a TGI (BT-549 breast) greater than 100 µM. The TGI (M14 melanoma) was greater than 100 µM, the TGI (NCI-H23 lung) was greater than 100 µM and the TGI (OVCAR-4 ovarian) was greater than 100 µM. It also gave a TGI (NCI/ADR-RES ovarian) greater than 100 µM, a TGI (COLO 205 colon) greater than 100 µM and a TGI (OVCAR-8 ovarian) greater than 100 µM. It also gave a TGI (A549 NSCLC) greater than 100 µM, a TGI (KM12 colon) greater than 100 µM and a TGI (RPMI-8226 leukemia) greater than 100 µM. For the same compound, the TGI (T-47D breast) was greater than 100 µM, the TGI (OVCAR-5 ovarian) was greater than 100 µM and the TGI (HCT-15 colon) was greater than 100 µM. For the same compound, the TGI (HOP-92 NSCLC) was greater than 100 µM, the TGI (OVCAR-3 ovarian) was greater than 100 µM and the TGI (IGROV1 ovarian) was greater than 100 µM. The TGI (SF-268 CNS) was greater than 100 µM.

Reference: PubChem BioAssay (NCI)
